Source: US9561228B2 (Celgene Avilomics Research, Inc., priority 2013, dated 2017)

Experiments:
[1] = system: ERK1/2 phosphorylation of p90RSK in HT29 cells; assay: pRSK MSD Assay in HT29 cells; type: cell-based; conditions: Homo sapiens, HT-29, read-out: ERK1/ERK2 PRSK MSD HT29 EC50
Method: The protocol below describes an assay to measure the kinase activity of ERK1/2 to phosphorylate a substrate, p90RSK, in the presence or absence of a test compound. This experiment was conducted using a Mesoscale Discovery plate. The day before the assay, HT29 cells were split and plated at 50,000 cells/well in complete growth media. After allowing cells to adhere, the media was removed and replaced with media containing 0.1% FBS and incubated overnight. Blank MSD plates (Mesoscale Discovery, Cat # L15XA3) were coated with 25 μl/well RSK capture antibody (BD Biosciences, Cat. #610226) and incubated at 4° C. overnight, then blocked with 150 μl of 3% BSA solution. The next day, the media from the cell culture plate was removed and replaced with 100 μl of media containing a test compound and incubated for 120 minutes at 37° C. The media was removed and replaced with 55 μl per well of lysis buffer with protease inhibitors (Roche Biosciences, Cat. #11836170001) and phosphatase inhibitors (Sigma-Aldrich, Cat. # P-0044 and P-5726), followed by incubation at 4° C. for 30 minutes. 50 μl of lysate was transferred to a blocked MSD plate, followed by incubation at room temperature for 2 hours under constant shaking. The plate was washed 3 times with MSD wash buffer (Mesoscale Discovery, Cat. # R617TX), and 25 μl/well phospho-RSK (pRSK) detection antibody (Cell Signaling Technology, Cat. #9335) was added with Sulfo-tagged detection antibody (Mesoscale Discovery, Cat. # R32AB-1) diluted in 1% BSA in MSD wash buffer. This mixture was incubated for 1 hour at room temperature under constant shaking. The plate was washed 3 times, and 150 μl 1×MSD read buffer was added, followed by signal detection in an MSD plate reader.

MEK1 activated ERK1 = target: T1, MEK1 activated ERK1 (Homo sapiens, UniProt P27361); assay: Omnia continuous-read kinase assay for potency against MEK1 activated ERK1; type: biochemical; conditions: MEK1 activated ERK1, ATP at KM; read-out: ERK1 Omnia WT ATP KM IC50
T1 construct: purchased Millipore (Billerica, Mass.) 14-439-K
T1 sequence (P27361 whole entry): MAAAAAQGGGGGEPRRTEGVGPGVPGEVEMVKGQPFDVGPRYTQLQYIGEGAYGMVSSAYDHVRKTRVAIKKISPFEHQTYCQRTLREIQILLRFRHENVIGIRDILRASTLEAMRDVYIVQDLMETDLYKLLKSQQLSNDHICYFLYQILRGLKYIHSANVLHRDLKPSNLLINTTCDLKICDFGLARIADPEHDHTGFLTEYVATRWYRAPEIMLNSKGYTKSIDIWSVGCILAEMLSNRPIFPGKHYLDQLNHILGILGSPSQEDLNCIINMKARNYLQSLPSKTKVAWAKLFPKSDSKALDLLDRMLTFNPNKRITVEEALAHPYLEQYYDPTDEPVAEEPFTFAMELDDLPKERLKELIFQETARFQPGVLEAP
Text: Omnia Assay Protocol for Potency Assessment Against MEK1 Activated ERK1:
The protocol below describes continuous-read kinase assays to measure potency of compounds against activated ERK1 enzyme. The mechanics of the assay platform are best described by the vendor (Invitrogen, Carlsbad, Calif.) on their website at the following URL: invitrogen.com/site/us/en/home.html.
Briefly, a 1.25× stock of ERK1 enzyme (14-439-K) from Millipore (Billerica, Mass.), 5×ATP (AS001A) and ST17-Sox conjugated peptide substrate (KNZ1171C) were prepared in 1× kinase reaction buffer consisting of 20 mM Tris, pH 7.5, 5 mM MgCl2, 1 mM EGTA, 5 mM β-glycerophosphate, 5% glycerol (10× stock, KB002A) and 0.2 mM DTT. 10 μL of ATP/ST17-sox peptide substrate mix was combined with 0.5 μL volume of 100% DMSO and serially diluted compounds were prepared in 100% DMSO in a Corning (#3574) 384-well, white, non-binding surface microtiter plate (Corning, N.Y.). Kinase reactions were started with the addition of 40 μL of ERK1 solution and monitored every 71 seconds for 30-240 minutes at λex360/λem485 in a Synergy plate reader from BioTek (Winooski, Vt.). At the conclusion of each assay, progress curves from each well were examined for linear reaction kinetics and fit statistics (R^2, 95% confidence interval, absolute sum of squares). Initial velocity (0 minutes to ˜30+ minutes) from each reaction was determined from the slope of a plot of relative fluorescence units vs time (minutes or seconds) and then plotted against inhibitor concentration to estimate ^AppIC50 from log [Inhibitor] vs Response, Variable Slope model in GraphPad Prism from GraphPad Software (San Diego, Calif.).
[Reagent] used in optimized protocol:
[ERK1]=4 nM, [ATP]=50 μM, [ST17-Sox]=10 μM (ATP ^appKM 48 μM)
The results of this assay show the degree of inhibition of ERK activity, which is a direct measurement of inhibition of ERK activity. Results from this assay are reported in Table A under the column “ERK1 Omnia WT ATP KM IC50 (nM).”

| EC50 [1] [nM] | IC50 (MEK1 activated ERK1) [nM] | SMILES |
| --- | --- | --- |
| 501 to 999 | 101 to 500 | C=CC(=O)Nc1ccc(C)cc1Nc1nc(NC2CCC(=O)CC2)ncc1C(F)(F)F [Compound I-39, N-(4-Methyl-2-((2-((4-oxocyclohexyl)amino)-5-(trifluoromethyl)pyrimidin-4-yl)amino)phenyl)acrylamide] |
| > 1000 | 101 to 500 | C=CC(=O)Nc1ccccc1Nc1nc(Nc2cc(C(=O)NOC)ccc2C#N)ncc1Cl [Compound I-195, 3-((4-((2-acrylamidophenyl)amino)-5-chloropyrimidin-2-yl)amino)-4-cyano-N-methoxybenzamide] |
| > 1000 | 501 to 999 | C=CC(=O)Nc1ccccc1Nc1nc(NC(C)(C)C)ncc1C(F)(F)F [Compound I-82, N-(2-((2-(tert-Butylamino)-5-(trifluoromethyl)pyrimidin-4-yl)amino)phenyl)acrylamide] |
| 501 to 999 | 101 to 500 | C=CC(=O)N[C@H]1CCCC[C@@H]1Nc1nc(N[C@H]2CCCN(C(=O)CO)C2)ncc1Cl (racemic) [Compound I-141, Rac-N-(2-((5-chloro-2-(((R)-1-(2-hydroxyacetyl)piperidin-3-yl)amino)pyrimidin-4-yl)amino)-trans-cyclohexyl)acrylamide] |
| 101 to 500 | 101 to 500 | C=CC(=O)Nc1cc(F)ccc1Nc1nc(Nc2ccc(F)cc2OC)ncc1Cl [Compound I-213, N-(2-((5-chloro-2-((4-fluoro-2-methoxyphenyl)amino)pyrimidin-4-yl)amino)-5-fluorophenyl)acrylamide] |
| > 1000 | 101 to 500 | C=C(C)S(=O)(=O)Nc1cc(F)ccc1Nc1nc(Nc2cc(C(N)=O)ccc2C)ncc1C(F)(F)F [Compound I-87, 3-((4-((4-Fluoro-2-(1-methylvinylsulfonamido)phenyl)amino)-5-(trifluoromethyl)pyrimidin-2-yl)amino)-4-methylbenzamide] |
| 101 to 500 | 501 to 999 | C=CC(=O)Nc1cc(C)ccc1Nc1nc(Nc2ccnc(Cl)c2)ncc1Cl [Compound I-230, N-(2-((5-chloro-2-((2-chloropyridin-4-yl)amino)pyrimidin-4-yl)amino)-5-methylphenyl)acrylamide] |
| 101 to 500 | 101 to 500 | C=CC(=O)Nc1ccccc1Nc1nc(NC2CCCCC2)ncc1Cl [Compound I-107, N-(2-((5-chloro-2-(cyclohexylamino)pyrimidin-4-yl)amino)phenyl)acrylamide] |
| 501 to 999 | 101 to 500 | C=CC(=O)Nc1ccccc1Nc1nc(Nc2cc(C(=O)NOC)ccc2OC)ncc1C(F)(F)F [Compound I-67, 3-((4-((2-Acrylamidophenyl)amino)-5-(trifluoromethyl)pyrimidin-2-yl)amino)-N,4-dimethoxybenzamide] |
| > 1000 | 101 to 500 | C=CC(=O)Nc1ccccc1Nc1nc(Nc2cc(C(=O)NOCCO)ccc2C#N)ncc1C(F)(F)F [Compound I-75, 3-((4-((2-Acrylamidophenyl)amino)-5-(trifluoromethyl)pyrimidin-2-yl)amino)-4-cyano-N-(2-hydroxyethoxyl)benzamide] |
| 101 to 500 | 101 to 500 | C=CC(=O)Nc1ccccc1Nc1nc(Nc2cc(C(=O)NOCCO)ccc2C)ncc1Cl [Compound I-198, 3-((4-((2-acrylamidophenyl)amino)-5-chloropyrimidin-2-yl)amino)-N-(2-hydroxyethoxy)-4-methylbenzamide] |
| > 1000 | 501 to 999 | O=C(CCl)Nc1ccccc1Nc1nc(N[C@H]2CCCN(C(=O)CCl)C2)ncc1C(F)(F)F [Compound I-31, (S)-2-Chloro-N-(2-((2-((1-(2-chloroacetyl)piperidin-3-yl)amino)-5-(trifluoromethyl)pyrimidin-4-yl)amino)phenyl)acetamide] |
| > 1000 | 101 to 500 | C=CC(=O)Nc1ccccc1Nc1nc(Nc2cc(C(=O)O)ccc2C)ncc1Cl [Compound I-225, 3-((4-((2-acrylamidophenyl)amino)-5-chloropyrimidin-2-yl)amino)-4-methylbenzoic acid] |
| > 1000 | 101 to 500 | C=CC(=O)Nc1ccccc1Nc1nc(Nc2cc(NC(=O)CCCC(=O)NCCCOCCOCCOCCCNC(=O)CCCC[C@@H]3SC[C@@H]4NC(=O)N[C@@H]43)cc(C(N)=O)c2)ncc1Cl [Compound I-304, N^1-(3-((4-((2-acrylamidophenyl)amino)-5-chloropyrimidin-2-yl)amino)-5-carbamoylphenyl)-N^5-(15-oxo-19-((3aS,4S,6aR)-2-oxohexahydro-1H-thieno[3,4-d]imidazol-4-yl)-4,7,10-trioxa-14-azanonadecyl)glutaramide] |
| > 1000 | 101 to 500 | C#CC(=O)N[C@@H]1CCCC[C@H]1Nc1nc(N[C@H]2CCCN(C(=O)CO)C2)ncc1C(F)(F)F [Compound I-34, N-((1R,2R)-2-((2-(((S)-1-(2-Hydroxyacetyl)piperidin-3-yl)amino)-5-(trifluoromethyl)pyrimidin-4-yl)amino)cyclohexyl)propiolamide] |
| > 1000 | > 1000 | C=CC(=O)N[C@@H]1CCCC[C@H]1Nc1nc(Nc2cc(C(=O)NOC)ccc2C)ncc1Cl (racemic) [Compound I-188, Rac-trans-3-((4-((2-acrylamidocyclohexyl)amino)-5-chloropyrimidin-2-yl)amino)-N-methoxy-4-methylbenzamide] |
| 101 to 500 | 101 to 500 | C=CC(=O)Nc1ccccc1Nc1nc(Nc2cc(C(N)=O)ccn2)ncc1C(F)(F)F [Compound I-83, 2-((4-((2-Acrylamidophenyl)amino)-5-(trifluoromethyl)pyrimidin-2-yl)amino)isonicotinamide] |
| – | 101 to 500 | C=CC(=O)Nc1ccccc1Nc1nc(N[C@H]2CC[C@H](OC)CC2)ncc1Cl [Compound I-100] |
| – | > 1000 | C=CC(=O)N[C@@H]1CCCC[C@H]1Oc1nc(Nc2cc(C(N)=O)ccc2C)ncc1C(N)=O (racemic) [Compound I-268, Rac-trans-4-((2-acrylamidocyclohexyl)oxy)-2-((5-carbamoyl-2-methylphenyl)amino)pyrimidine-5-carboxamide] |
| – | 501 to 999 | C=CC(=O)Nc1ccccc1Nc1nc(N[C@H]2CC[C@@H](O)CC2)ncc1C(F)(F)F [Compound I-109, N-(2-((2-(cis-(4-hydroxycyclohexyl)amino)-5-(trifluoromethyl)pyrimidin-4-yl)amino)phenyl)acrylamide] |
| – | 101 to 500 | C=CC(=O)Nc1ccccc1Nc1nc(N[C@H]2CCCN(C(=O)[C@@H](O)CO)C2)ncc1C(F)(F)F [Compound I-50, N-(2-((2-(((S)-1-((S)-2,3-Dihydroxypropanoyl)piperidin-3-yl)amino)-5-(trifluoromethyl)pyrimidin-4-yl)amino)phenyl)acrylamide] |
| – | 501 to 999 | C=CC(=O)N(C)c1ccccc1Nc1nc(N[C@H]2CC[C@H](O)CC2)ncc1Cl [Compound I-104, N-(2-((5-chloro-2-(trans-(4-hydroxycyclohexyl)amino)pyrimidin-4-yl)amino)phenyl)-N-methylacrylamide] |
| – | 101 to 500 | C=CC(=O)Nc1cc(OC)ccc1Nc1nc(Nc2ccc(N(CC)C(C)=O)cc2OC)ncc1Cl [Compound I-175, N-(2-((5-chloro-2-((4-(N-ethylacetamido)-2-methoxyphenyl)amino)pyrimidin-4-yl)amino)-5-methoxyphenyl)acrylamide] |
